# Measured values taken from US12605354B2, “Azelaic acid esters in the treatment or prevention of dyslipidemia and associated conditions” (NEW FRONTIER LABS, LLC, priority 2020, dated 2026).
# Marks after values point to notes of the source that are not given here.
# Columns and labels:
# [1] = test system: overweight to obese males; experiment: 21-day oral DEA study: fasting insulin and OGTT insulin; assay type: in vivo, human; conditions: for AUC insulin: 180-minute OGTT, in µU·min/mL (unit assumed); for AUC insulin / Fasting insulin: D21 post-treatment, 21 daily oral doses of 1 mg/kg, mean
# Excerpt: (§1) Seventeen subjects were recruited by sampling a large population at risk for T2D (according to convenience sample; a statistical method of drawing representative data) to measure the changes in glucose, lipid and insulin measurements after an OGTT after the subjects had been treated for 21 days.
# (§2) The subjects were overweight to obese males with body mass indices (BMIs) ranging from 27.2 to 43.6 kg/m^2, glycated hemoglobin A1c (HbA1c) of 5.0-6.2% and insulin levels of 8.8-52 μU/mL. The study was conducted by Clinical Trials of Texas, Inc. in San Antonio, TX. The cohort represented a population at risk for the development of T2D. The study was restricted to male participants to control for the variability of insulin sensitivity associated with the menstrual cycle. The subjects received 21 daily oral doses (“q1d”) of 1 mg/kg DEA. An OGTT, in which 75 grams of glucose in a total volume of 300 mL was administered orally to subjects, was performed on Day 0 and again on Day 21 and glucose measurements performed at −30, −5 and 0 min, insulin measurements at −30 and 0 min, and both glucose measurements and insulin measurements at 30, 60, 90, 120 and 180 minutes, where “0 min” is the time at which the glucose solution was administered. The 180-minute time point was selected to gain an early insight into the possible signal of drug action. Blood lipid levels (triglycerides, cholesterol, HDL, non-cholesterol HDL and LDL) were measured before the onset of treatment on Day 0 and again on Day 21. The error of the assays was <5% [36].
# (§3) The results of the various marker measurements at Day 0 and Day 21 were compared using both the paired Students T-test and the Wilcoxon signed rank test. The results of both calculations are provided; the p-value from the paired Student T-test first, followed by the p-value from the Wilcoxon signed rank test. Generalized Estimating Equations and bootstrapping were used to verify the results generated with other methods. Fasting glucose was calculated as the average of the −30, −5, and 0-minute measurements and fasting insulin was calculated as the average of the −30- and 0-minute measurements. Spearman's correlation coefficient was calculated for the relationship between A1c and pre-treatment fasting plasma glucose versus post-treatment fasting plasma glucose. Area under the curve (AUC) was calculated over the 180-minute time span of the OGTT. All analyses were performed using the open language engine R 3.4.4. Statistical significance was at the α=0.05 level.
# [2] = test system: overweight to obese males; experiment: 21-day oral DEA study: blood lipid levels and lipid ratios; assay type: in vivo, human; conditions: for LDL/triglycerides / LDL/HDL / Triglycerides/HDL / Non-cholesterol HDL/HDL / Cholesterol, total/HDL / HDL cholesterol / LDL cholesterol / Non-cholesterol HDL / Triglycerides / Cholesterol, total: D21 post-treatment, 21 daily oral doses of 1 mg/kg, mean; for decrease of LDL/HDL: p=0.02; for Cholesterol/HDL, decrease / LDL/HDL, decrease: significant effect
# Excerpt: as §1, §2, §3
smiles,measurement,setting,value
"CCOC(=O)CCCCCCCC(=O)OCC [DEA, diethyl azelate]",AUC insulin,"[1]; All (n = 17), D0 24963",26834
same,AUC insulin,"[1]; FPG <100 mg/dL (n = 8), D0 22215",27461
same,AUC insulin,"[1]; FPG >100 mg/dL (n = 9), D0 27405",26275
same,AUC insulin,"[1]; High A1c (n = 9), D0 27055",25988
same,AUC insulin,"[1]; Low A1c (n = 8), D0 22609",27785
same,Fasting insulin,"[1]; All (n = 17), D0 26.082",25.894 μU/mL
same,Fasting insulin,"[1]; FPG <100 mg/dL (n = 8), D0 20.212",20.95 μU/mL
same,Fasting insulin,"[1]; FPG >100 mg/dL (n = 9), D0 31.3",30.289 μU/mL
same,Fasting insulin,"[1]; High A1c (n = 9), D0 30.411",28.9 μU/mL
same,Fasting insulin,"[1]; Low A1c (n = 8), D0 21.212",22.512 μU/mL
same,decrease of fasting insulin,"[1]; all 17 subjects, p=0.916, p=0.963",0.7 μU/mL
same,decrease of median insulin area under the curve (AUC),"[1]; high A1c group, not statistically significant",1663.5
same,decrease of fasting insulin,"[1]; high A1c group, p=0.916, p=0.963",0.84 μU/mL
same,decrease of fasting insulin,"[1]; high fasting plasma glucose group, p=0.752, p=0.855",2.97 μU/mL
same,increase of median insulin area under the curve (AUC),"[1]; low A1c group, not statistically significant",3380.25
same,decrease of fasting insulin,"[1]; remaining 16 subjects (subject #1 excluded), p=0.007, 0.009",13.4%
same,average fasting insulin post-treatment,"[1]; subject #1, outlier in the high A1c group, increased from 77.45 pre-treatment",96.15 μU/mL
same,median decrease of fasting insulin,"[1]; subset of 8 subjects (#2-4, 8-11, and 13)",42.5%
same,decrease of mean fasting insulin,"[1]; subset of 8 subjects (#2-4, 8-11, and 13), p=0.004, p=0.008",37.8%
same,"HDL, increase","[2]; 21-day study, group not stated",8.7% increase
same,LDL/triglycerides,"[2]; All (n = 17), D0 0.998",0.893
same,LDL/HDL,"[2]; All (n = 17), D0 3.442, P < 0.05",3.201*
same,Triglycerides/HDL,"[2]; All (n = 17), D0 3.761",3.907
same,Non-cholesterol HDL/HDL,"[2]; All (n = 17), D0 3.799, P < 0.05",3.549*
same,"Cholesterol, total/HDL","[2]; All (n = 17), D0 4.806, P < 0.05",4.553*
same,HDL cholesterol,"[2]; All (n = 17), D0 32.765",34.412 mg/dL
same,LDL cholesterol,"[2]; All (n = 17), D0 93.765",89.765 mg/dL
same,Non-cholesterol HDL,"[2]; All (n = 17), D0 117.412",114.471 mg/dL
same,Triglycerides,"[2]; All (n = 17), D0 118.588",124 mg/dL
same,"Cholesterol, total","[2]; All (n = 17), D0 150.118",148.882 mg/dL
same,LDL/triglycerides,"[2]; FPG <100 mg/dL (n = 8), D0 0.861",0.887
same,LDL/HDL,"[2]; FPG <100 mg/dL (n = 8), D0 3.082",2.892
same,Non-cholesterol HDL/HDL,"[2]; FPG <100 mg/dL (n = 8), D0 3.309",3.098
same,Triglycerides/HDL,"[2]; FPG <100 mg/dL (n = 8), D0 3.693",3.521
same,"Cholesterol, total/HDL","[2]; FPG <100 mg/dL (n = 8), D0 4.311",4.089
same,HDL cholesterol,"[2]; FPG <100 mg/dL (n = 8), D0 31.25",31.5 mg/dL
same,LDL cholesterol,"[2]; FPG <100 mg/dL (n = 8), D0 101",90.75 mg/dL
same,Non-cholesterol HDL,"[2]; FPG <100 mg/dL (n = 8), D0 111.778",114.333 mg/dL
same,Triglycerides,"[2]; FPG <100 mg/dL (n = 8), D0 122.889",127.667 mg/dL
same,"Cholesterol, total","[2]; FPG <100 mg/dL (n = 8), D0 154.875",146.125 mg/dL
same,LDL/triglycerides,"[2]; FPG >100 mg/dL (n = 9), D0 1.152",0.9
same,Triglycerides/HDL,"[2]; FPG >100 mg/dL (n = 9), D0 3.837",4.342
same,LDL/HDL,"[2]; FPG >100 mg/dL (n = 9), D0 3.847",3.549
same,Non-cholesterol HDL/HDL,"[2]; FPG >100 mg/dL (n = 9), D0 4.349",4.057
same,"Cholesterol, total/HDL","[2]; FPG >100 mg/dL (n = 9), D0 5.362",5.075
same,HDL cholesterol,"[2]; FPG >100 mg/dL (n = 9), D0 34.111",37 mg/dL
same,LDL cholesterol,"[2]; FPG >100 mg/dL (n = 9), D0 105",103.444 mg/dL
same,Triglycerides,"[2]; FPG >100 mg/dL (n = 9), D0 113.75",119.875 mg/dL
same,Non-cholesterol HDL,"[2]; FPG >100 mg/dL (n = 9), D0 123.75",114.625 mg/dL
same,"Cholesterol, total","[2]; FPG >100 mg/dL (n = 9), D0 145.889",151.333 mg/dL
same,LDL/triglycerides,"[2]; High A1c (n = 9), D0 0.954",0.972
same,LDL/HDL,"[2]; High A1c (n = 9), D0 3.173, P < 0.01",2.862**
same,Non-cholesterol HDL/HDL,"[2]; High A1c (n = 9), D0 3.446",3.108
same,Triglycerides/HDL,"[2]; High A1c (n = 9), D0 3.481",3.096
same,"Cholesterol, total/HDL","[2]; High A1c (n = 9), D0 4.456, P < 0.05",4.1*
same,HDL cholesterol,"[2]; High A1c (n = 9), D0 37.889",41.222 mg/dL
same,LDL cholesterol,"[2]; High A1c (n = 9), D0 105",103.444 mg/dL
same,Triglycerides,"[2]; High A1c (n = 9), D0 129",125.222 mg/dL
same,Non-cholesterol HDL,"[2]; High A1c (n = 9), D0 130.667",128.444 mg/dL
same,"Cholesterol, total","[2]; High A1c (n = 9), D0 168.444",169.667 mg/dL
same,LDL/triglycerides,"[2]; Low A1c (n = 8), D0 1.048",0.804
same,LDL/HDL,"[2]; Low A1c (n = 8), D0 3.744",3.582
same,Triglycerides/HDL,"[2]; Low A1c (n = 8), D0 4.076",4.82
same,Non-cholesterol HDL/HDL,"[2]; Low A1c (n = 8), D0 4.196",4.046
same,"Cholesterol, total/HDL","[2]; Low A1c (n = 8), D0 5.2",5.062
same,HDL cholesterol,"[2]; Low A1c (n = 8), D0 27",26.75 mg/dL
same,LDL cholesterol,"[2]; Low A1c (n = 8), D0 81.125",74.375 mg/dL
same,Non-cholesterol HDL,"[2]; Low A1c (n = 8), D0 102.5",98.75 mg/dL
same,Triglycerides,"[2]; Low A1c (n = 8), D0 106.875",122.625 mg/dL
same,"Cholesterol, total","[2]; Low A1c (n = 8), D0 129.5",125.5 mg/dL
same,"LDL, decrease",[2]; all,4.3%
same,decrease of LDL/HDL,"[2]; all 17 subjects, p=0.011",6.46%
same,HDL and non-cholesterol HDL,[2]; all subjects,non-significantly affected by the treatment
same,"Cholesterol/HDL, decrease",[2]; all,5.4%
same,"LDL/HDL, decrease",[2]; all,6.5%
same,"effect on total cholesterol, LDL, HDL, non-cholesterol HDL, and triglycerides considered singly",[2]; entire cohort,did not exert statistically significant effects on any endpoint considered singly
same,decrease of the ratio of total cholesterol/HDL,"[2]; entire cohort, p=0.025, p=0.041",5.36%
same,decrease of non-cholesterol HDL/HDL ratio,"[2]; entire cohort, p=0.025, p=0.057",6.6%
same,"LDL, decrease",[2]; high A1c,2%
same,decrease of median total cholesterol,[2]; high A1c group,1 mg/dL
same,decrease of the ratio of triglycerides/HDL,[2]; high A1c group,11%
same,ratio of triglycerides/HDL post-treatment,"[2]; high A1c group, from 3.4",3.0
same,LDL trend,"[2]; high A1c group, less so in the low A1c group, normal <100 mg/dL",decreasing trend toward normal values
same,decrease of the ratio of total cholesterol/HDL,"[2]; high A1c group, p=0.017, p=0.068",7.99%
same,decrease of non-cholesterol HDL/HDL ratio,"[2]; high A1c group, p=0.025, p=0.074",9.8%
same,decrease of LDL/HDL,"[2]; high A1c subjects, 21-day study (3 weeks), p=0.008",9.8%
same,"Cholesterol/HDL, decrease",[2]; high A1c,8%
same,"LDL/HDL, decrease",[2]; high A1c,9.8%
same,elevated triglycerides post-treatment,[2]; including two high A1c subjects with abnormal triglycerides >150 before treatment,decreased post-treatment to normal levels in 8 subjects
same,increase of the ratio of triglycerides/HDL,[2]; low A1c,15%
same,increase of median total cholesterol,[2]; low A1c group,9 mg/dL
same,ratio of triglycerides/HDL post-treatment,"[2]; low A1c, from 3.9",4.6
same,abnormal total cholesterol (>200 mg/dL) post-treatment,[2]; two subjects in the high A1c group,decreased or returned to normal levels
